“Also recorded” adds a separate entry of the source. Where a name gives a salt, the structure may show the parent alone. Read-outs that look alike come from different tables or passages of the source.
Tests used:
Type in all cases: cell-based
[1] = biological target: T1, human GR (full-length) (Homo sapiens, UniProt P04150); test: U2OS-GR/3xGRE luciferase reporter cell line (full-length receptor)
T1 construct: expression vectors encoding full-length steroid receptors: pcDNA3-hAR and pcDNA3-hGR; host or cells: U2OS
T1 sequence (P04150 1-777): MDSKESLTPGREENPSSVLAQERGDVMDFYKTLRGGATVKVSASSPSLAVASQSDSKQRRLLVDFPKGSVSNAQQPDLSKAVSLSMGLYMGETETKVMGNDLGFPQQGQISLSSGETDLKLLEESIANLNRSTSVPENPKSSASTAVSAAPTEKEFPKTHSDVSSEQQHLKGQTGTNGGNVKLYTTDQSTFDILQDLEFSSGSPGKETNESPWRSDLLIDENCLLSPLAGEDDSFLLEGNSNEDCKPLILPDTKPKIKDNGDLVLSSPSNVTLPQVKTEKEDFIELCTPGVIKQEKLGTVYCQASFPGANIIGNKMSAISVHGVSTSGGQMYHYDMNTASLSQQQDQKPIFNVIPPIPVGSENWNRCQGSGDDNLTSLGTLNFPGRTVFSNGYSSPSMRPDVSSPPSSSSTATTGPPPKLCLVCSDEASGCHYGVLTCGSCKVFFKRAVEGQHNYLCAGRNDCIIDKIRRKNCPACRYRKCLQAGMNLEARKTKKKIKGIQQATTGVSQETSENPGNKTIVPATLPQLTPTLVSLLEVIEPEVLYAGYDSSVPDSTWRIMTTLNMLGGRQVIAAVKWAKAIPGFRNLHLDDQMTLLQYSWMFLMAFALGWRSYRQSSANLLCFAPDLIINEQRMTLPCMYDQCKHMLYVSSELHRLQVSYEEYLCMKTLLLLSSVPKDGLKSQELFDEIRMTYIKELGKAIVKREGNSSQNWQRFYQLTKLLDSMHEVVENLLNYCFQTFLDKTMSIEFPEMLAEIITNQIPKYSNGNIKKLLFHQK

[2] = biological target: T2, GR-LBD fused to Gal4-DBD (Homo sapiens, UniProt P04150); test: U2OS-GR-LBD/9xGal4UAS luciferase reporter cell line
T2 construct: expressed in transfected cells; host or cells: U2OS
T2 sequence (P04150 524-758 limits assumed): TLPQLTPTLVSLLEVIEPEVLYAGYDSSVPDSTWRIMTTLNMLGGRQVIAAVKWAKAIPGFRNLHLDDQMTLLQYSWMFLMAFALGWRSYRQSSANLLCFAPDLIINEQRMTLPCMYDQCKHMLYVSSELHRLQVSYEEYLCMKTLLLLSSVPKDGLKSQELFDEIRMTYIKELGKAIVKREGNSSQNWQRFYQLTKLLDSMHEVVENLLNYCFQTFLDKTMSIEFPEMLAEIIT

[3] = biological target: T3, human MR (full-length) (Homo sapiens, UniProt P08235); test: U2OS-MR/MMTV luciferase reporter cell line (full-length receptor); details: for activity profile in words: full-length MR format
T3 construct: expression vectors encoding full-length steroid receptors: pcDNA3-hAR, pcDNA3-hGR and pcDNA3-hMR; expressed in transfected cells; host or cells: U2OS
T3 sequence (P08235 1-984): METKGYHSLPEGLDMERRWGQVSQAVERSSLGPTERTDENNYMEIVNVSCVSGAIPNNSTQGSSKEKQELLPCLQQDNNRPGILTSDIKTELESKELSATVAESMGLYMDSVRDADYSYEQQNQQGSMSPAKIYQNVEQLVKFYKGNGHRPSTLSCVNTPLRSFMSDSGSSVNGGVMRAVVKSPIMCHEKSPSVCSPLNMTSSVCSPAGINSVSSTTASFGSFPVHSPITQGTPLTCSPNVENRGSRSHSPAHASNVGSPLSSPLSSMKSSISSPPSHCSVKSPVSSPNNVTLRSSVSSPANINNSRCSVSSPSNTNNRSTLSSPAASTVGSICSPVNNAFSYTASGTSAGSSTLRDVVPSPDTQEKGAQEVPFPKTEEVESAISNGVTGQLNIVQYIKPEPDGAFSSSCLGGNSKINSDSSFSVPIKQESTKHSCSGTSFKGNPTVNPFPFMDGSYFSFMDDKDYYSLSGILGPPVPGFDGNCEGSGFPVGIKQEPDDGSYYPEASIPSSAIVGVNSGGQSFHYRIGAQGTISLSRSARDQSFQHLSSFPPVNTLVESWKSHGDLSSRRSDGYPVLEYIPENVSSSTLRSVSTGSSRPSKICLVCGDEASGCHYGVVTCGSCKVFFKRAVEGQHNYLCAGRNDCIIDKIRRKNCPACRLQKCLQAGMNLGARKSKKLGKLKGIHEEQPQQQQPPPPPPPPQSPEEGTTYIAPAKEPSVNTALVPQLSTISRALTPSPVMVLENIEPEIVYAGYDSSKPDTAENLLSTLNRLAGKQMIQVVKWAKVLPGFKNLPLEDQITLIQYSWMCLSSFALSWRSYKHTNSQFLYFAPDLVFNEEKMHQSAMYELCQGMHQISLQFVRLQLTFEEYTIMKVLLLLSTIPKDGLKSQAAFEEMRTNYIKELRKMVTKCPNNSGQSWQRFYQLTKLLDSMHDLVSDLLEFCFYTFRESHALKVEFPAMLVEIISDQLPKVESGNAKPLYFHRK

[4] = biological target: T1, human GR (full-length); test: U2OS-GR/MMTV luciferase reporter cell line (full-length receptor)
[5] = biological target: T4, MR-LBD fused to Gal4-DBD (Homo sapiens, UniProt P08235); test: U2OS-MR-LBD/9xGal4UAS luciferase reporter cell line; details: for activity profile in words: MR-LBD expressing reporter cell line, agonist and antagonist mode
T4 construct: MR-LBD was cloned by RT-PCR from total RNA isolated from HEK293 cells; expressed in transfected cells; host or cells: U2OS
T4 sequence (P08235 726-964 limits assumed): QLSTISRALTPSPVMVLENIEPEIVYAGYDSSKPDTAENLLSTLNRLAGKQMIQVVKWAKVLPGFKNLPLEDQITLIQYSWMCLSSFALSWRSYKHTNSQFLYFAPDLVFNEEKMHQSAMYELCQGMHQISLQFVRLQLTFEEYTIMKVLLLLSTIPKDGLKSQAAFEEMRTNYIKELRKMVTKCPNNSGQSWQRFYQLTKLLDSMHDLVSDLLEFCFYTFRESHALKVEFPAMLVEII

[6] = biological target: T5, human ERβ (full-length) (Homo sapiens, UniProt Q92731); test: U2OS-ERβ/3xERE luciferase reporter cell line (full-length receptor)
T5 construct: expression vectors encoding full-length steroid receptors: pcDNA3-hERα and pcDNA3-ERβ; expressed in transfected cells; host or cells: U2OS

[7] = biological target: T6, ERβ-LBD fused to Gal4-DBD (Homo sapiens, UniProt Q92731); test: U2OS-ERβ-LBD/9xGal4UAS luciferase reporter cell line
T6 construct: region comprising ERβ-LBD and a piece of the hinge region; expressed in transfected cells; host or cells: U2OS

[8] = biological target: T7, PR-LBD fused to Gal4-DBD (Homo sapiens, UniProt P06401); test: U2OS-PR-LBD/9xGal4UAS luciferase reporter cell line
T7 construct: PR-LBD region was PCR amplified using the following primer combination; host or cells: U2OS
T7 sequence (P06401 679-913 limits assumed): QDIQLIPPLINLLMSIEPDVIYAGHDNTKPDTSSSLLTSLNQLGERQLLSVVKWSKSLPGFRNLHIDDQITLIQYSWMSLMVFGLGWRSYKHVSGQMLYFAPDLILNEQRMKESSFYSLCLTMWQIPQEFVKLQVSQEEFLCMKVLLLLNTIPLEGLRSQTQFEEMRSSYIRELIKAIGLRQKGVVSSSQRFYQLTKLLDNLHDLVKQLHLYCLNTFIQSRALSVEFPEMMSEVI

[9] = antagonist mode, PR-LBD/9xGal4UAS, log10 of molar IC50, mean ± SEM, read-out: Log IC50 (converted)

T5 sequence (Q92731 whole entry): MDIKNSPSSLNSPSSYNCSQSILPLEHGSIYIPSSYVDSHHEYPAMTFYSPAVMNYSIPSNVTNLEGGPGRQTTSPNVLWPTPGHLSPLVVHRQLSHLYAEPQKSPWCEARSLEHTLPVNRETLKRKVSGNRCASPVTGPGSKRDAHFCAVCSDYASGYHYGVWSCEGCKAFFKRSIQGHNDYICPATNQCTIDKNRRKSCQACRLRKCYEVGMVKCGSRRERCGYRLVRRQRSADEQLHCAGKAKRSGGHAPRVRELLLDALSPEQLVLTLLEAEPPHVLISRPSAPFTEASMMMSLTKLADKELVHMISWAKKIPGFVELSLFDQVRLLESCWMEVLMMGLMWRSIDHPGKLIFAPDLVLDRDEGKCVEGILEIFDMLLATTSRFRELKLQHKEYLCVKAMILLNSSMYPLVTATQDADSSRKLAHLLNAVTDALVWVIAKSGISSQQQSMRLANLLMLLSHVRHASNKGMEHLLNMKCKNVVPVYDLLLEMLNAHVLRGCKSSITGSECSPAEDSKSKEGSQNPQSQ
T6 sequence (Q92731 264-498 limits assumed): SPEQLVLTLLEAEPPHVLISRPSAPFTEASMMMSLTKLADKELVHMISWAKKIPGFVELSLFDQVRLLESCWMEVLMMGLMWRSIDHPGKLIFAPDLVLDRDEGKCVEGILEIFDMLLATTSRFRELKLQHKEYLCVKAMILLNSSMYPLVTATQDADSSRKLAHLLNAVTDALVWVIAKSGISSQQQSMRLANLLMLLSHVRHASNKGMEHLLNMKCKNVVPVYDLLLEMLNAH

4-hydroxy-tamoxifen
Log EC50 ([1]; agonist mode, GR/3xGRE, 20 h, log10 of molar EC50, mean ± SEM): > -5.00 M | Log IC50 ([1]; antagonist mode, GR/3xGRE, in the presence of 5 nM dexamethasone, log10 of molar IC50, mean ± SEM): > -5.00 M | Log EC50 ([2]; agonist mode, GR-LBD/9xGal4UAS, 20 h, log10 of molar EC50, mean ± SEM): > -5.00 M | Log IC50 ([2]; antagonist mode, GR-LBD/9xGal4UAS, in the presence of 5 nM dexamethasone, log10 of molar IC50, mean ± SEM): > -5.00 M | Log EC50 ([3]; agonist mode, MR/MMTV, 20 h, log10 of molar EC50, mean ± SEM): > -5.00 M | Log IC50 ([3]; antagonist mode, MR/MMTV, in the presence of 1 nM aldosterone, log10 of molar IC50, mean ± SEM): > -5.00 M | Log EC50 ([4]; agonist mode, GR/MMTV, 20 h, log10 of molar EC50, mean ± SEM): > -5.00 M | Log IC50 ([4]; antagonist mode, GR/MMTV, in the presence of 5 nM dexamethasone, log10 of molar IC50, mean ± SEM): > -5.00 M | Log EC50 ([5]; agonist mode, MR-LBD/9xGal4UAS, 20 h, log10 of molar EC50, mean ± SEM): > -5.00 M | Log IC50 ([5]; antagonist mode, MR-LBD/9xGal4UAS, in the presence of 1 nM aldosterone, log10 of molar IC50, mean ± SEM): > -5.00 M

CC(=O)C1(O)CCC2C3CCC4=CC(=O)CCC4(C)C3CCC21C (stereo not drawn) [17α-hydroxyprogesterone]
EC50 ([1]; read-out: Log EC50 (converted)): > 10 µM | EC50 ([2]; read-out: Log EC50 (converted)): > 10 µM | EC50 ([4]; read-out: Log EC50 (converted)): > 10 µM | EC50 ([6]; read-out: Log EC50 (converted)): > 10 µM | EC50 ([7]; read-out: Log EC50 (converted)): > 10 µM | IC50 [8, 9]: > 10 µM | EC50 ([8]; read-out: Log EC50 (converted)): > 10 µM

C[C@H]1C[C@H]2[C@@H]3CCC4=CC(=O)C=C[C@]4(C)[C@@]3(F)[C@@H](O)C[C@]2(C)[C@@]1(O)C(=O)CO [Betamethasone, betamethasone]
activity profile in words ([3]; antagonist mode): no sign of antagonistic activity | activity profile in words [5]: only weakly and partially activated; also recorded: pronounced full antagonist effect | IC50 [8, 9]: > 10 µM | EC50 ([8]; read-out: Log EC50 (converted)): 4.79 µM

CC(=O)O[C@]1(C(C)=O)CC[C@H]2[C@@H]3C=C(Cl)C4=CC(=O)[C@@H]5C[C@@H]5[C@]4(C)[C@H]3CC[C@@]21C [Cyproterone acetate, cyproterone acetate]
EC50 ([3]; read-out: Log EC50 (converted)): > 10 µM | luciferase activity in ERβ reporter cell lines ([6]; ERβ reporter cell lines, even at 10 μM concentration): did not find any sign of luciferase activity | EC50 ([6]; read-out: Log EC50 (converted)): > 10 µM | EC50 ([5]; read-out: Log EC50 (converted)): > 10 µM | EC50 ([7]; read-out: Log EC50 (converted)): > 10 µM

CC/C(=C(/CC)c1ccc(O)cc1)c1ccc(O)cc1 [DES, Diethylstilbestrol]
EC50 ([3]; read-out: Log EC50 (converted)): > 10 µM | EC50 ([5]; read-out: Log EC50 (converted)): > 10 µM

C[C@@H]1C[C@H]2[C@@H]3CCC4=CC(=O)C=C[C@]4(C)[C@@]3(F)[C@@H](O)C[C@]2(C)[C@@]1(O)C(=O)CO [Dexamethasone, dexamethasone]
activity profile in words ([3]; antagonist mode): no sign of antagonistic activity | activity profile in words [5]: only weakly and partially activated; also recorded: pronounced full antagonist effect | IC50 [8, 9]: > 10 µM | EC50 ([8]; read-out: Log EC50 (converted)): 4.79 µM

C[C@]12CCC(=O)C[C@@H]1CC[C@@H]1[C@@H]2CC[C@]2(C)[C@@H](O)CC[C@@H]12 [Dihydrotestosterone, 5α-androstan-17β-ol-3-one]
EC50 [3]: > 10 µM | EC50 [5]: > 10 µM | EC50 [8]: 0.398 µM | IC50 [8]: > 10 µM

CC#C[C@]1(O)CC[C@H]2[C@@H]3CCC4=CC(=O)CCC4=C3[C@@H](c3ccc(N(C)C)cc3)C[C@@]21C [Mifepristone (RU486), mifepristone]
activity profile in words ([1]; full-length GR reporter cell line U2OS-GR/3xGRE): partial agonist/full antagonist | activity profile in words ([2]; GR LBD format (U2OS-GR-LBD/9xGal4UAS)): very potent pure full antagonist | activity profile in words ([4]; full-length GR reporter cell line U2OS-GR/MMTV): partial agonist/full antagonist

CC1(C)NC(=O)N(c2ccc([N+](=O)[O-])c(C(F)(F)F)c2)C1=O [Nilutamide, nilutamide]
EC50 ([3]; read-out: Log EC50 (converted)): > 10 µM | EC50 ([6]; read-out: Log EC50 (converted)): > 10 µM | EC50 ([5]; read-out: Log EC50 (converted)): > 10 µM | EC50 ([7]; read-out: Log EC50 (converted)): > 10 µM | IC50 [8, 9]: > 10 µM | EC50 ([8]; read-out: Log EC50 (converted)): > 10 µM

O=C(c1ccc(OCCN2CCCCC2)cc1)c1c(-c2ccc(O)cc2)sc2cc(O)ccc12 [Raloxifene hydrochloride, raloxifene hydrochloride]
EC50 ([3]; read-out: Log EC50 (converted)): > 10 µM | EC50 ([5]; read-out: Log EC50 (converted)): > 10 µM

CC/C(=C(\c1ccccc1)c1ccc(OCCN(C)C)cc1)c1ccccc1 [Tamoxifen citrate, tamoxifen citrate]
EC50 ([1]; read-out: Log EC50 (converted)): > 10 µM | EC50 ([2]; read-out: Log EC50 (converted)): > 10 µM | EC50 ([3]; read-out: Log EC50 (converted)): > 10 µM | EC50 ([4]; read-out: Log EC50 (converted)): > 10 µM | EC50 ([5]; read-out: Log EC50 (converted)): > 10 µM

C[C@]12CC[C@H]3[C@@H](CCC4=CC(=O)CC[C@@]43C)[C@@H]1CC[C@@H]2O [Testosterone, testosterone]
EC50 [1]: > 10 µM | EC50 [2]: > 10 µM | EC50 [3]: > 10 µM | EC50 [4]: > 10 µM | EC50 [6]: 0.49 µM | EC50 [5]: > 10 µM | EC50 [7]: 2.88 µM | EC50 [8]: 0.0468 µM | IC50 [8]: > 10 µM

From article PMC3234597, “Two Panels of Steroid Receptor Luciferase Reporter Cell Lines for Compound Profiling” (Combinatorial Chemistry & High Throughput Screening, 2011)
